Common to all, as to experiment: c-ponatinib pulldown LC-MS/MS
Holding throughout (assay type): binding

For one assay, the target named is T1, TAB2 (Homo sapiens, UniProt Q9NYJ8).
T1 sequence (Q9NYJ8 1-693): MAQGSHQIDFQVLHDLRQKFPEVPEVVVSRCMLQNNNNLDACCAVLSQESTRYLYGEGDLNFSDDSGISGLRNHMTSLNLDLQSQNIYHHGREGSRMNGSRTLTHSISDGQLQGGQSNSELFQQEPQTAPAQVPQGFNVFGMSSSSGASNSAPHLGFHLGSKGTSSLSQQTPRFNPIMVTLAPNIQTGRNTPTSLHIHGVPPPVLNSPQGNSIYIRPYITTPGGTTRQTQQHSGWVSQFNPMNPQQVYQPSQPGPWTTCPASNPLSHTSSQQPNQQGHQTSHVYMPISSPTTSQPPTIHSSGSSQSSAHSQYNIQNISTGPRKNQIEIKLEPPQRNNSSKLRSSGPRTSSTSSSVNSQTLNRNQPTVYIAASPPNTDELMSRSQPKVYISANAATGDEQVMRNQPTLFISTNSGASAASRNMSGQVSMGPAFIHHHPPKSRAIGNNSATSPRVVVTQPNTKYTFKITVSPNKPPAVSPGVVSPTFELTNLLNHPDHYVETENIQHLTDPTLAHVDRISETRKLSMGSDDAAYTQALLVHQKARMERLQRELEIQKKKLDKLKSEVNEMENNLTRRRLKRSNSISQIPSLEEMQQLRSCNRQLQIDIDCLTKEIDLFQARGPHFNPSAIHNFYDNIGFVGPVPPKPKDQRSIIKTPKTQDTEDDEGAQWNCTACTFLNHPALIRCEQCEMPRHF
T1 sequence (O43318 1-606 partner): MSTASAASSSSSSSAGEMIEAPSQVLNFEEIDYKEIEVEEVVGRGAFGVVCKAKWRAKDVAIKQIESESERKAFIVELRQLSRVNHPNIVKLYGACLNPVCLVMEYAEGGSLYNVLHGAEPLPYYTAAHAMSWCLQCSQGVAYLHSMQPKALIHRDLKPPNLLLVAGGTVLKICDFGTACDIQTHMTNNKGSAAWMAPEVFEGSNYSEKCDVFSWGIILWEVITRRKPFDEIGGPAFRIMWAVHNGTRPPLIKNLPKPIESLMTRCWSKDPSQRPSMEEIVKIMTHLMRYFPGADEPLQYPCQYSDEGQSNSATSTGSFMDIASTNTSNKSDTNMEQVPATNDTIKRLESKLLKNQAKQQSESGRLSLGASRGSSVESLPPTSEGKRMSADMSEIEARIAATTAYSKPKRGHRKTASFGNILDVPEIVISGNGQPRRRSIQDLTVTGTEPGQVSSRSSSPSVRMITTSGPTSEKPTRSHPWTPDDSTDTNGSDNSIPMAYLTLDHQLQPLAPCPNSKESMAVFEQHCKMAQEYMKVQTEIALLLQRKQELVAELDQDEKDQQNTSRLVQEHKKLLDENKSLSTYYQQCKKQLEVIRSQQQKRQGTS
The essentials:
(§1)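 Whole cell lysate (10 mg) was first passed over immobilized c-ponatinib, and bound proteins were eluted. After reduction, alkylation and tryptic digestion, the peptides were analysed by LC-MS/MS. Finally, binding specificity was assigned by a combined P-value, with or without free-compound competition.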

The target in the next assay is TESK2 (Homo sapiens, UniProt Q96S53). The procedure, abridged: as §1
TESK2, sequence (Q96S53 whole entry): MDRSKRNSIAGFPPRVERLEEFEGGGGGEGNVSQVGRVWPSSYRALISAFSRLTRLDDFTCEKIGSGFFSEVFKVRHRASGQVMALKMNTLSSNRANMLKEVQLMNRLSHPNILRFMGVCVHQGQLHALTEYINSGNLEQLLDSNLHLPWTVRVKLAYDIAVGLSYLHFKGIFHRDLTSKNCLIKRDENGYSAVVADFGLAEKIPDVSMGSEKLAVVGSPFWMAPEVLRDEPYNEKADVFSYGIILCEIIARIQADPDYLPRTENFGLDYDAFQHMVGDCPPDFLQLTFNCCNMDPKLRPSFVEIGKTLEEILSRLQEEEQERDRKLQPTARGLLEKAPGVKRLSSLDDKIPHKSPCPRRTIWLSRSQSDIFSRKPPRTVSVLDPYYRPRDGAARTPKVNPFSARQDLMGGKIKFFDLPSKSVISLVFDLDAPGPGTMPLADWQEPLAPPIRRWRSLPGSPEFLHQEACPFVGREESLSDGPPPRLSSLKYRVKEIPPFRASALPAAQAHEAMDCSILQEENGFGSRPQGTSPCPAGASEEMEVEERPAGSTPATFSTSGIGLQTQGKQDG
Another assay has as its target T2, YWHAZ (Homo sapiens, UniProt P63104).
T2 sequence (P63104 1-245): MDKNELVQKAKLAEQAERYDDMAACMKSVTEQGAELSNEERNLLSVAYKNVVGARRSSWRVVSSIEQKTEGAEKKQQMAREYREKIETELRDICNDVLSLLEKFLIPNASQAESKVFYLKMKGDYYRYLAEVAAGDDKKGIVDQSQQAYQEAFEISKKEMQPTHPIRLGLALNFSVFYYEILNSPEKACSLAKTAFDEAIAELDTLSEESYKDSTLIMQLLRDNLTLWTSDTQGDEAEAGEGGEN
The procedure, abridged: as §1

Consider `Cc1ccc(C(=O)Nc2ccc(CN3CCN(CCCN)CC3)c(C(F)(F)F)c2)cc1C#Cc1cnc2cccnn12` [c-ponatinib], for which the entries for the “Av. SC comp.” value on TAB2 (+ free ponatinib), at TESK2 (+ free ponatinib) and on YWHAZ (+ free ponatinib) were 0, 0 and 2.5, respectively. The “Total SC comp.” value stood at 0 at TAB2 (+ free ponatinib), 0 at TESK2 (+ free ponatinib) and 10 at YWHAZ (+ free ponatinib). In addition, the “Av. SC” value on TAB2 (no competitor) came out at 2.5; at TESK2 (no competitor), 5; at YWHAZ (no competitor), 10.5. Besides, the “Total SC” value turned out to be 10 at TAB2 (no competitor), 20 on TESK2 (no competitor) and 42 on YWHAZ (no competitor).
